Reference: patent publication US20180008688A1, “METHOD AND COMPOSITIONS FOR ENHANCING IMMUNOTHERAPEUTIC TREATMENT OF A CANCER” (Augusta University Research Institute, Inc., priority 2016, published 2018)
Entries after “also recorded” stand apart in the source; their conditions may differ. Read-outs that look alike come from different tables or passages of the source.

What was measured:
B16F10 tumors = type: in vivo; details: for anti-tumor effect: nutlin-3a added to CTX/VO-OHpic, FIG. 8B
Description: In vivo tumor studies: The B16F10 and E.G7 (EL4-OVA) cell lines were obtained from ATCC. B16-OVA (B16F10 transfected with full-length chicken ovalbumin) clone MO4 was according to Falo et al. ((1995) Nat. Med. 1: 649-653). B16F10 cells expressing EGFP protein (B16-GFP cells) were derived using lentiviral transfection. Tumor implantation was performed as described (Sharma et al., (2007) J. Clin. Invest. 117: 2570-2582), using 1×10^5 cells for B16F10 and 1×10^6 cells for other cell lines (large inocula were used to ensure rapid tumor engraftment and immune suppression). […] Tumor volume was calculated from orthogonal diameters using the formula V=L×W^2×π/6. Mice received approved euthanasia when tumors reached a size of 300 mm^2 (product of orthogonal diameters); death was never used a planned endpoint in any study.
(§1) Tumor implantation was performed as described (Sharma et al., (2007) J. Clin. Invest. 117: 2570-2582). VO-OHpic was given at 10 mg/kg/day i.p., in 10% DMSO/PBS. Cyclophosphamide was given at 150 mg/kg i.p×1 dose; and oxaliplatin at 5 mg/kg i.p×1 dose. Nutlin-3a was administered daily at 10 mg/kg/day i.p. For checkpoint blockade, mice received anti-CTLA-4 plus a cocktail of antibodies against the PD-1 pathway. Vaccines and T cell adoptive transfer studies were performed as described (Sharma et al., (2015) Sci. Advances. 1: e1500845).
VO-OHpic/CTX, nutlin-3a, oxaliplatin and immunotherapy regimens: The vanadate compound VO-OHpic (Mak et al., (2010) J. Chem. Biol. 3: 157-163) inhibits PTEN activity, and this drug was used to destabilize PTEN+Tregs during chemotherapy. Like all of the available PTEN-inhibitors, VO-OHpic can also affect other phosphatases (Spinelli et al., (2015) Adv. Biol. Regul. 57: 102-111).
VO-OHpic was given at 10 mg/kg/day i.p., in 10% DMSO/PBS. Cyclophosphamide was given at 150 mg/kg i.p×1 dose. Oxaliplatin was given at 5 mg/kg i.p×1 dose. […] For checkpoint blockade, mice received anti-CTLA-4 (clone 9D9, BioXcell) plus a cocktail of antibodies against the PD-1 pathway: anti-PD-L2, clone TY25 (Yamazaki et al., (2002) J. Immunol. 169: 5538-5545); anti-PD-1, clone J43 (Agata et al., (1996) Int. Immunol. 8: 765-772); and anti-PD-L1, clone MIH7 (Tsushima et al., (2003) Eur. J. Immunol. 33: 2773-2782). A cocktail was used in order to block the PD-1 pathway as completely as possible and thus minimize any peculiarities of a single blocking antibody.

E.G7 tumors [1] = assay: RIP-mOVA mice with E.G7 tumors treated with oxaliplatin with or without nutlin; type: in vivo; details: nutlin-3a added to oxaliplatin
Description: A classical model of ICD was first tested in which EL4-OVA lymphoma tumors (clone E.G7) are treated with oxaliplatin chemotherapy (Ghiringhelli et al., (2009) Nat. Med. 15: 1170-1178). E.G7 bears the same model antigen as B16-OVA (described with the RIP-mOVA model, above), so it was possible to test the effects of nutlin plus oxaliplatin in the RIP-mOVA model.

E.G7 tumors [2] = assay: E.G7/oxaliplatin model in LysMcre/p53-KO hosts with or without nutlin-3a; type: in vivo, mouse; details: mice lacking myeloid p53; FIG. 8D
From the text: To test whether the relevant target of nutlin in tumors was specifically the p53 expression in myeloid dendritic cells, the E.G7/oxaliplatin model in LysMcre/p53-KO hosts was used. If mice lacked the relevant p53 in tumor-associated myeloid cells, then LysMcre/p53-KO mice should lose all anti-tumor effect of nutlin. For these studies, mice received congenically-marked OT-I cells to monitor whether T cells were still rescued by IL-12 in tumors.
Mice with a nuclear-localizing Cre-recombinase knock-in replacing one copy of the Lyz2 gene (Clausen et al., (1999) Transgenic Res. 8: 265-277) (strain 004781, Jax) were crossed as heterozygotes with homozygous p53^flox/flox mice (Marino et al., (2000) Genes Dev. 14: 994-1004) (strain 008462, Jax).
as §1

E.G7 tumors [3] = assay: E.G7 (EL4-OVA) tumors in wild-type hosts treated with oxaliplatin with or without nutlin-3a; type: in vivo, mouse; details: for Ly6C+/CD103+ dendritic cells in tumors: nutlin added to oxaliplatin
Description: In vivo tumor studies: The B16F10 and E.G7 (EL4-OVA) cell lines were obtained from ATCC. B16-OVA (B16F10 transfected with full-length chicken ovalbumin) clone MO4 was according to Falo et al. ((1995) Nat. Med. 1: 649-653). B16F10 cells expressing EGFP protein (B16-GFP cells) were derived using lentiviral transfection. Tumor implantation was performed as described (Sharma et al., (2007) J. Clin. Invest. 117: 2570-2582), using 1×10^5 cells for B16F10 and 1×10^6 cells for other cell lines (large inocula were used to ensure rapid tumor engraftment and immune suppression). Tumors were implanted bilaterally in each mouse as a control for reproducible implantation technique; replicate tumor diameters in a single mouse were typically within ±15%. Tumor volume was calculated from orthogonal diameters using the formula V=L×W^2×π/6. Mice received approved euthanasia when tumors reached a size of 300 mm^2 (product of orthogonal diameters); death was never used a planned endpoint in any study.
as §1
VO-OHpic was given at 10 mg/kg/day i.p., in 10% DMSO/PBS. Cyclophosphamide was given at 150 mg/kg i.p×1 dose. Oxaliplatin was given at 5 mg/kg i.p×1 dose. Nutlin-3a was dissolved at 2 mg/ml in 10% DMSO in buffered saline and administered daily at 10 mg/kg/day i.p. The 10 mg/kg/day dose was at the lower end of the parenteral dosing range described for mice (Zhang et al., (2011) Drug Meta. Dispos. 39: 15-21). For checkpoint blockade, mice received anti-CTLA-4 (clone 9D9, BioXcell) plus a cocktail of antibodies against the PD-1 pathway: anti-PD-L2, clone TY25 (Yamazaki et al., (2002) J. Immunol. 169: 5538-5545); anti-PD-1, clone J43 (Agata et al., (1996) Int. Immunol. 8: 765-772); and anti-PD-L1, clone MIH7 (Tsushima et al., (2003) Eur. J. Immunol. 33: 2773-2782). A cocktail was used in order to block the PD-1 pathway as completely as possible and thus minimize any peculiarities of a single blocking antibody.

[4] = nutlin-3a added to VO-OHpic+CTX

COc1ccc(C2=NC(c3ccc(Cl)cc3)C(c3ccc(Cl)cc3)N2C(=O)N2CCNC(=O)C2)c(OC(C)C)c1 (single isomer, unassigned; (-)) [nutlin-3a, (−)-4-(4,5-Bis(4-chlorophenyl)-2-(2-isopropoxy-4-methoxyphenyl)-4,5-dihydro-1H-imidazole-1-carbonyl)piperazin-2-one]
anti-tumor effect (B16F10 tumors): maintained a prolonged anti-tumor response | anti-tumor effect (B16F10 tumors; listed as Nutlin-3a): markedly prolonged and maintained the anti-tumor effect | Ly6c+CD103+ dendritic cells in tumors (B16F10 tumors; [4]): large population | phospho-p53-Ser15 in dendritic cells (B16F10 tumors; [4]): sustained elevation | anti-tumor activity (E.G7 tumors [1]): significantly enhancing the anti-tumor activity | autoimmune diabetes (E.G7 tumors [1]): protected the mice from diabetes | anti-tumor effect of nutlin-3a (E.G7 tumors [2]): lost all anti-tumor effects; also recorded: lost all ability to enhance anti-tumor immunity | Ly6C+/CD103+ dendritic cells in tumors (E.G7 tumors [3]): sustained expression | Ly6C+/CD103+ dendritic cells in tumors (E.G7 tumors [3]; listed as nutlin): maintained long-term expression | anti-tumor effect (E.G7 tumors [3]; nutlin-3a added to one dose of oxaliplatin, FIG. 8C): markedly prolonged the anti-tumor effect; also recorded: significantly increased the intensity and duration of the anti-tumor effect | IL-12 production (E.G7 tumors [3]; nutlin-3a added to oxaliplatin): enhanced IL-12 production
